Test results taken from the supplement of paper PMC11061612.

Tests used:
Experiment in all cases: Bliss excess, mean over the matrix (fraction); higher = more synergy
[1] = test system: LOUCY (T-Lymphoblastic Leukemia)
Procedure, shortened: (§1)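 After 24 hours at 37°C and 5% CO2 in 1536-well plates, cells in DMEM/F12 or RPMI plus 10% FBS received two-drug dose matrices for 72 hours. Viability came from CellTiter-Glo 2.0 luminescence and was scaled as inhibition, anchored at 0 by vehicle wells and at 1 by blank wells. Combination Emax is taken as the second-highest inhibition in the matrix, and Bliss excess as the observed combination effect less EA + EB − EA·EB, with EA and EB the single-agent effects.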

[2] = test system: NCI-H810 (Non-Small Cell Lung Carcinoma)
Procedure, shortened: as §1

[3] = test system: COLO-684 (Endometrial Carcinoma)
Procedure, shortened: as §1

[4] = test system: KYM-1 (Rhabdomyosarcoma)
Procedure, shortened: as §1

[5] = test system: SW684 (Other Solid Carcinomas)
Procedure, shortened: as §1

[6] = test system: NCI-H1755 (Lung Adenocarcinoma)
Procedure, shortened: as §1

For `CS(=O)(=O)CCNCc1ccc(-c2ccc3ncnc(Nc4ccc(OCc5cccc(F)c5)c(Cl)c4)c3c2)o1` [Lapatinib] + NC1(c2ccc(-c3nc4ccn5c(=O)[nH]nc5c4cc3-c3ccccc3)cc2)CCC1 [MK-2206] (first compound max 10 µM, 7x7, partner max 10 µM), the Bliss excess [1] was -0.0343, the Bliss excess [2] was -0.0152 and the Bliss excess [3] was 0.0322. The Bliss excess [4] was 0.0255, the Bliss excess [5] was 0.0223 and the Bliss excess [6] was -0.0085.
